These molecules were tested on HCV replicon (assay: HCV replicon replication assay (NPT ELISA) in Huh-7 replicon-containing cells). Conditions: Hepatitis C virus, 72 h; HCV replicon in Huh-7 cells, three days incubation; read-out: EC50.
Assay type: cell-based
How it was run: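 Replication was scored by capture ELISA of neomycin phosphotransferase, whose level tracks replicon replication, after graded compound treatment. The cells were Huh-7 harbouring an HCV-IRES/neo/EMCV-IRES/NS3–NS5B/3′-NTR replicon, plated at 6000-7500 cells/well and dosed 24 h later at 60-70% confluence; interferon alpha was the positive control.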

Row | SMILES | EC50 [nM]
1 | C=C[C@@H]1C[C@]1(NC(=O)[C@@H]1C[C@@H](NC(=O)c2cc(-c3ccccc3)nc3ccccc23)CN1C(=O)[C@@H](CC(=O)N1CCCC(F)C1)C(C)(C)C)C(=O)NS(=O)(=O)C1CC1 (stereo partly drawn) [Compound 204, N-((3R,5S)-1-((2S)-2-tert-butyl-4-(3-fluoropiperidin-1-yl)-4-oxobutanoyl)-5-((1R,2S)-1-(cyclopropylsulfonyl-carbamoyl)-2-vinyl-cyclopropyl-carbamoyl)pyrrolidin-3-yl)-2-phenylquinoline-4-carboxamide] | < 1000
2 | C=C[C@@H]1C[C@]1(NC(=O)[C@@H]1C[C@@H](NC(=O)c2cc(-c3ccccc3)nc3ccccc23)CN1C(=O)[C@@H](CC(=O)N1CCC(F)CC1)C(C)(C)C)C(=O)NS(=O)(=O)C1CC1 [Compound 205, N-((3R,5S)-1-((S)-2-tert-butyl-4-(4-fluoropiperidin-1-yl)-4-oxobutanoyl)-5-((1R,2S)-1-(cyclopropylsulfonyl-carbamoyl)-2-vinyl-cyclopropyl-carbamoyl)pyrrolidin-3-yl)-2-phenylquinoline-4-carboxamide] | < 1000
3 | C=C[C@@H]1C[C@]1(NC(=O)[C@@H]1C[C@@H](Oc2cc(-c3ccccn3)nc3c(Cl)c(OC)ccc23)CN1C(=O)[C@@H](CC(=O)N1CCC(F)(F)C1)C(C)(C)C)C(=O)NS(=O)(=O)C1CC1 [Compound 206, (2S,4R)-1-((S)-2-tert-butyl-4-(3,3-difluoropyrrolidin-1-yl)-4-oxobutanoyl)-4-(8-chloro-7-methoxy-2-(pyridin-2-yl)quinolin-4-yloxy)-N-((1R)-1-(cyclopropylsulfonyl-carbamoyl)-2-vinylcyclopropyl)pyr-rolidine-2-carboxamide] | < 1000
4 | C=C[C@@H]1C[C@]1(NC(=O)[C@@H]1C[C@@H](Oc2cc(-c3ccccn3)nc3c(Cl)c(OC)ccc23)CN1C(=O)[C@@H](CC(=O)N1CCCC1C(F)(F)F)C(C)(C)C)C(=O)NS(=O)(=O)C1CC1 (stereo partly drawn) [Compound 207, (2S,4R)-1-((2S)-2-tert-butyl-4-oxo-4-(2-(trifluoromethyl)pyr-rolidin-1-yl)butanoyl)-4-(8-chloro-7-methoxy-2-(pyridin-2-yl)quinolin-4-yloxy)-N-((1R)-1-(cyclopropylsulfonyl-carbamoyl)-2-vinylcyclopropyl)pyr-rolidine-2-carboxamide] | < 1000
5 | C=C[C@@H]1C[C@]1(NC(=O)[C@@H]1C[C@@H](Oc2cc(-c3ccccn3)nc3c(Cl)c(OC)ccc23)CN1C(=O)[C@@H](CC(=O)N1CCC(C(F)(F)F)CC1)C(C)(C)C)C(=O)NS(=O)(=O)C1CC1 [Compound 208, (2S,4R)-1-((S)-2-tert-butyl-4-oxo-4-(4-(trifluoro-methyl)piperidin-1-yl)butanoyl)-4-(8-chloro-7-methoxy-2-(pyridin-2-yl)quinolin-4-yloxy)-N-((1R)-1-(cyclopropyl-sulfonylcarbamoyl)-2-vinylcyclo-propyl)pyrrolidine-2-carboxamide] | < 1000
6 | C=C[C@@H]1C[C@]1(NC(=O)[C@@H]1C[C@@H](Oc2cc(-c3ccccn3)nc3c(Cl)c(OC)ccc23)CN1C(=O)[C@@H](CC(=O)N1CCCC(F)C1)C(C)(C)C)C(=O)NS(=O)(=O)C1CC1 (stereo partly drawn) [Compound 209] | < 1000
7 | C=C[C@@H]1C[C@]1(NC(=O)[C@@H]1C[C@@H](Oc2cc(-c3ccccc3)nc3cc(OC)ccc23)CN1C(=O)[C@@H](CC(=O)N1CCCCC1)C(C)(C)C)C(=O)O [Compound 210, (1R)-1-((2S,4R)-1-((S)-2-tert-butyl-4-oxo-4-(piperidin-1-yl)butanoyl)-4-(7-methoxy-2-phenylquinolin-4-yloxy)pyrrolidine-2-carboxamido)-2-vinylcyclopropane-carboxylic acid] | > 10000
8 | C=C[C@@H]1C[C@]1(NC(=O)[C@@H]1C[C@@H](Oc2cc(-c3ccccc3)nc3cc(OC)ccc23)CN1C(=O)[C@@H](CC(=O)N1CCCC[C@H]1C(=O)Nc1nccs1)C(C)(C)C)C(=O)NS(=O)(=O)C1CC1 [Compound 211, (2S)-1-((3S)-3-((2S,4R)-2-((1R)-1-(cyclopropyl-sulfonylcarbamoyl)-2-vinylcyclopropyl-carbamoyl)-4-(7-methoxy-2-phenylquinolin-4-yloxy)pyrrolidine-1-carbonyl)-4,4-dimethylpentanoyl)-N-(thiazol-2-yl)piperidine-2-carboxamide] | < 1000
9 | C=C[C@@H]1C[C@]1(NC(=O)[C@@H]1C[C@@H](Oc2cc(-c3ccccc3)nc3cc(OC)ccc23)CN1C(=O)[C@@H](CC(=O)N1CCCC1C(=O)Nc1nccs1)C(C)(C)C)C(=O)NS(=O)(=O)C1CC1 (stereo partly drawn) [Compound 212, (2S,4R)-1-((S)-2-tert-butyl-4-oxo-4-((S)-2-(thiazol-2-ylcarbamoyl)pyr-rolidin-1-yl)butanoyl)-N-((1R)-1-(cyclo-propylsulfonyl-carbamoyl)-2-vinylcyclopropyl)-4-(7-methoxy-2-phenylquinolin-4-yloxy)pyrrolidine-2-carboxamide] | < 1000
10 | C=C[C@@H]1C[C@]1(NC(=O)[C@H]1C[C@@H](Oc2cc(-c3ccccc3)nc3cc(OC)ccc23)CN1C(=O)[C@@H](CC(=O)N1CCCCC1)C(C)(C)C)C(=O)NS(=O)(=O)C1CC1 [Compound 213, (2R,4R)-1-((S)-2-tert-butyl-4-oxo-4-(piperidin-1-yl)butanoyl)-N-((1R)-1-(cyclo-propylsulfonyl-carbamoyl)-2-vinyl-cyclopropyl)-4-(7-methoxy-2-phenylquinolin-4-yloxy)pyrrolidine-2-carboxamide] | < 1000
11 | C=C[C@@H]1C[C@]1(NC(=O)[C@@H]1C[C@@H](Oc2cc(-c3ccccn3)nc3cc(OC)ccc23)CN1C(=O)[C@@H](CC(=O)N1CCC(F)(F)C1)C(C)(C)C)C(=O)NS(=O)(=O)C1CC1 [Compound 214, (2S,4R)-1-((S)-2-tert-butyl-4-(3,3-difluoropyrrolidin-1-yl)-4-oxobutanoyl)-N-((1R)-1-(cyclopropyl-sulfonylcarbamoyl)-2-vinylcyclopropyl)-4-(7-methoxy-2-(pyridin-2-yl)quinolin-4-yloxy)pyrrolidine-2-carboxamide] | < 1000
12 | C=C[C@@H]1C[C@]1(NC(=O)[C@@H]1C[C@@H](Oc2cc(-c3ccccn3)nc3cc(OC)ccc23)CN1C(=O)[C@@H](CC(=O)N1CCC(C(F)(F)F)CC1)C(C)(C)C)C(=O)NS(=O)(=O)C1CC1 [Compound 215, (2S,4R)-1-((S)-2-tert-butyl-4-oxo-4-(4-(trifluoro-methyl)piperidin-1-yl)butanoyl)-N-((1R)-1-(cyclopropyl-sulfonylcarbamoyl)-2-vinylcyclopropyl)-4-(7-methoxy-2-(pyridin-2-yl)quinolin-4-yloxy)pyrrolidine-2-carboxamide] | < 1000
13 | C=C[C@@H]1C[C@]1(NC(=O)[C@@H]1C[C@@H](Oc2cc(-c3ccccn3)nc3cc(OC)ccc23)CN1C(=O)[C@@H](CC(=O)N1CCC(F)(F)CC1)C(C)(C)C)C(=O)NS(=O)(=O)C1CC1 [Compound 216, (2S,4R)-1-((S)-2-tert-butyl-4-(4,4-difluoropiperidin-1-yl)-4-oxobutanoyl)-N-((1R)-1-(cyclo-propylsulfonyl-carbamoyl)-2-vinylcyclopropyl)-4-(7-methoxy-2-(pyridin-2-yl)quinolin-4-yloxy)pyrrolidine-2-carboxamide] | < 1000
14 | C=C[C@@H]1C[C@]1(NC(=O)[C@@H]1C[C@@H](Oc2cc(-c3ccccn3)nc3cc(OC)ccc23)CN1C(=O)[C@@H](CC(=O)N1CCCC(F)(F)C1)C(C)(C)C)C(=O)NS(=O)(=O)C1CC1 [Compound 217, (2S,4R)-1-((S)-2-tert-butyl-4-(3,3-difluoropiperidin-1-yl)-4-oxobutanoyl)-N-((1R)-1-(cyclopropyl-sulfonylcarbamoyl)-2-vinylcyclopropyl)-4-(7-methoxy-2-(pyridin-2-yl)quinolin-4-yloxy)pyrrolidine-2-carboxamide] | < 1000
15 | C=C[C@@H]1C[C@]1(NC(=O)[C@@H]1C[C@@H](Oc2cc(-c3ccccn3)nc3cc(OC)ccc23)CN1C(=O)[C@@H](CC(=O)N1CCC(F)CC1)C(C)(C)C)C(=O)NS(=O)(=O)C1CC1 [Compound 218, (2S,4R)-1-((S)-2-tert-butyl-4-(4-fluoropiperidin-1-yl)-4-oxobutanoyl)-N-((1R)-1-(cyclo-propylsulfonyl-carbamoyl)-2-vinylcyclopropyl)-4-(7-methoxy-2-(pyridin-2-yl)quinolin-4-yloxy)pyrrolidine-2-carboxamide] | < 1000
16 | C=C[C@@H]1C[C@]1(NC(=O)[C@@H]1C[C@@H](Oc2cc(-c3ccccn3)nc3cc(OC)ccc23)CN1C(=O)[C@@H](CC(=O)N1CC2CCC1C2)C(C)(C)C)C(=O)NS(=O)(=O)C1CC1 (stereo partly drawn) [Compound 220, (2S,4R)-1-((2S)-2-(2-(2-azabi-cyclo[2.2.1]heptan-2-yl)-2-oxoethyl)-3,3-dimethylbutanoyl)-N-((1R)-1-(cyclo-propylsulfonyl-carbamoyl)-2-vinylcyclopropyl)-4-(7-methoxy-2-(pyridin-2-yl)quinolin-4-yloxy)pyrrolidine-2-carboxamide] | < 1000
17 | C=C[C@@H]1C[C@]1(NC(=O)[C@@H]1C[C@@H](Oc2cc(-c3ccccn3)nc3cc(OC)ccc23)CN1C(=O)[C@@H](CC(=O)N1CC2CC3CC(C2)CC1C3)C(C)(C)C)C(=O)NS(=O)(=O)C1CC1 [Compound 221] | > 10000
18 | C=C[C@@H]1C[C@]1(NC(=O)[C@@H]1C[C@@H](Oc2cc(-c3ccccc3)nc3cc(OC)ccc23)CN1C(=O)[C@@H](CC(=O)N1CCC1)C(C)(C)C)C(=O)NS(=O)(=O)C1CC1 [Compound 222, (2S,4R)-1-((S)-4-(azetidin-1-yl)-2-tert-butyl-4-oxobutanoyl)-N-((1R)-1-(cyclopropyl-sulfonylcarbamoyl)-2-vinylcyclopropyl)-4-(7-methoxy-2-phenylquinolin-4-yloxy)pyrrolidine-2-carboxamide] | < 1000

Source: patent US9133115B2 (ACHILLION PHARMACEUTICALS, INC., priority 2008, dated 2015)
